Here are results for nine compounds from US9969700B2, “P2X4 receptor antagonist” (NIPPON CHEMIPHAR CO., LTD, priority 2012, dated 2018).

As usually defined, the IC50 is the concentration that gives 50% inhibition.

The target in assay [1] is human P2X4 receptor (Homo sapiens (Human), UniProt Q99571). Nature of the assay: P2X4 receptor antagonist activity (ATP-induced intracellular calcium, Fura-2 AM). The assay is classed as cell-based. The following applies: 1321N1 cells stably expressing human P2X4 receptor; test substance 15 minutes before ATP; read-out: Inhibitory activity IC50.
In assay [2] the test system is Neurogenic pain model (modified Chung model). Put plainly: Analgesic activity, von Frey filament test in neurogenic pain model (modified Chung model). Particulars: rats, oral administration of 50 mg/kg, day 9 after the modified Chung operation; significant difference compared with vehicle group. It is filed as in vivo. The procedure: Neurogenic pain model (modified Chung model) was prepared according to the description of Non-patent document 9. More specifically, under isoflurane anesthesia, back hair of rats was extensively shaved, the shaved parts were wiped with rubbing alcohol, the rate were fixed on an incubator in the abdominal position, and the skins were cut and opened along the dorsal median line on the upper and lower sides of the sacroiliac bone. The left lateral paravertebral muscle was separated in the sacral region, and then the ligament was separated. The sacroiliae rim and the upper part thereof were cut and opened along the pyramid, the L5 nerve was ligated, and the nerve was cut on the peripheral side. […]
The pain threshold value (paw withdrawal threshold (g)) was calculated according to the up down method by stimulating the sole with a von Frey filament (Stoelting Co., TOUCH-TEST SENSORY EVALUATOR) and determining presence or absence of withdrawal response.
As the von Frey filaments, seven filaments giving different stimulation strengths were used. The 50% threshold value was calculated according to the up down method by referring to the method of Chaplan et al. (Chaplan S R, Bach F W, Pogrel J W, Chung J M, Yaksh T L.: Quantitative assessment of tactile allodynia in the rat paw, J. Neurosci. Methods, 53:55-63 (1994). […]

Structures are written as SMILES. Counter-ions that a name gives are not always drawn.

Chain of human P2X4 receptor (Q99571 whole entry): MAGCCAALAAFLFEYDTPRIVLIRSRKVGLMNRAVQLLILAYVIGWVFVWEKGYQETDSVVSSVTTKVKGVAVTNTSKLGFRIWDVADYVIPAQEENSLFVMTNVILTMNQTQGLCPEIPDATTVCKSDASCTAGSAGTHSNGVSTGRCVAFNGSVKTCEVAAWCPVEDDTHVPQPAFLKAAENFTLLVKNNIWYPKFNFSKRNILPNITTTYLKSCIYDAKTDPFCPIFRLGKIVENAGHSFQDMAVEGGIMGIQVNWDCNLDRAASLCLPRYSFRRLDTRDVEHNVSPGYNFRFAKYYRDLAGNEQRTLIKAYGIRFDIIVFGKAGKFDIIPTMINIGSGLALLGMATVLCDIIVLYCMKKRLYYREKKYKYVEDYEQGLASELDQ

Regarding `O=C(Cc1ccccc1Cl)Nc1ccc(N2C(=O)CC(=O)Nc3c2ccc2ccccc32)cc1` [Example 13, 5-[4-[(2-Chlorophenylacetyl)amino]phenyl]-1H-naphtho[1,2-b][1,4]diazepine-2,4(3H,5H)-dione], the IC50 in assay [1] was determined as 0.54 µM. The same measure, in the same setting: then `O=C1CC(=O)N(c2ccc(NC(=O)Nc3ccccc3)cc2)c2ccc3ccccc3c2N1` [Example 20, 1-[4-(2,4-Dioxo-1,2,3,4-tetrahydronaphtho[1,2-b][1,4]diazepin-5-yl)phenyl]-3-phenylurea], with 1.2 µM. With `O=C1CC(=O)N(c2ccc(NC(=O)c3ccccc3I)cc2)c2ccc3ccccc3c2N1` [Example 48, 5-[4-(2-Iodobenozoylamino)phenyl]-1H-naphtho[1,2-b][1,4]diazepine-2,4(3H,5H)-dione], the “pain threshold value (paw withdrawal threshold) of the diseased limb” value in assay [2] is reported as “raised the pain threshold value of the diseased limb”. As to `O=C1CC(=O)N(c2ccc(NC(=O)c3c(O)cccc3Cl)cc2)c2ccc3ccccc3c2N1` [Example 118, 5-[4-(6-Chloro-2-hydroxybenzoylamino)phenyl]-1H-naphtho[1,2-b][1,4]diazepine-2,4(3H,5H)-dione], the “pain threshold value (paw withdrawal threshold) of the diseased limb” value in assay [2] is “raised the pain threshold value of the diseased limb”. In addition, the IC50 in assay [1] is 1.1 µM. Turning to `CN(c1ccc(N2C(=O)CC(=O)Nc3c2ccc2c3CCCC2)cc1)S(=O)(=O)Cc1ccccc1Cl` [Example 196, 1-(2-Chlorophenyl)-N-[4-(2,4-dioxo-1,2,3,4,8,9,10,11-octahydronaphtho[1,2-b][1,4]diazepin-5-yl)phenyl]-N-methylmethanesulfonamide], the IC50 in assay [1] amounted to 0.97 µM. In the case of `O=C1CN=C(c2ccc(NS(=O)(=O)Cc3ccccc3Cl)cc2)c2ccc3ccccc3c2N1` [Example 197, 1-(2-Chlorophenyl)-N-[4-(2-oxo-2,3-dihydro-1H-naphtho[1,2-e][1,4]diazepin-5-yl)phenyl]methanesulfonamide], the IC50 in assay [1] turned out to be 0.44 µM.

Turning to `Cc1ncccc1C(=O)Nc1ccc(N2C(=O)CC(=O)Nc3c2ccc2ccccc32)cc1` [Example 208, 5-[4-[(2-Methylpyridin-3-yl)carbonylamino]phenyl]-1H-naphtho[1,2-b][1,4]diazepine-2,4(3H,5H)-dione hydrochloride], the IC50 in assay [1] is 1.3 µM. On to `O=C1CC(=O)N(c2ccc(NC(=O)c3cccnc3Cl)cc2)c2ccc3ccccc3c2N1` [Example 209, 5-[4-[(2-Chloropyridin-3-yl)carbonylamino]phenyl]-1H-naphtho[1,2-b][1,4]diazepine-2,4(3H,5H)-dione], for which, in assay [1], the IC50 turned out to be 0.94 µM.

Consider `O=C(COc1ccccn1)Nc1ccc(N2C(=O)CC(=O)Nc3c2ccc2ccccc32)cc1` [Example 210, 5-[4-[2-[(Pyridin-2-yl)oxy]acetylamino]phenyl]-1H-naphtho[1,2-b][1,4]diazepine-2,4(3H,5H)-dione], for which, in assay [1], the IC50 is 1.4 µM.
